Data published in US20150051078A1, “Glyphosate tank mix adjuvant comprising a base selected from a carbonate and/or a phosphate” (priority 2012, published 2015).

Assays:
[1] = Description: The volatility was determined by analyzing the loss of material by HLPL at 70° C. after 24 h at atmospheric pressure and the loss is summarized in Table 5. The application rate was 500 g/ha dicamba (free acid), 1000 g/ha potassium glyphosate, 300 g/ha Genamin® T050 (“Ad2”, 300 g/ha Preference® (“Ad3”) and optionally 250, 500 or 1000 g/ha K2CO3. Deionised water (hardness<1° dH) was used to prepare the samples. Dicamba BAPMA refers to the bis(3-aminopropyl)methylamine salt of dicamba.
[2] = tested on: Soya (glycine max) Variant Deltapine, genetically engineered to resist glyphosate; assay type: in vivo; conditions: conclusion from Table 4
Description: For the greenhouse tests, maize (cultivar Amadeo) and Chenopodium album was sown or potted in loamy sandy soil to a depth of 1-2 cm. When the plants had reached a growth height of 10 to 25 cm (around 10 to 21 days after sowing), the spray mixtures were applied to the plants in a spraying cabin.
The temperatures in the experimental period, which lasted for 3 to 4 weeks, were between 18-35° C. During this time, the experimental plants received optimum watering, with nutrients being supplied via the water used for watering.
The herbicidal activity was evaluated by awarding scores to the treated plants in comparison to the untreated control plants (Table 1 and 2). The evaluation scale ranges from 0% to 100% activity. 100% activity means the complete death at least of those parts of the plant that are above ground. Conversely, 0% activity means that there were no differences between treated and untreated plants.
The biological evaluation was made as described in Example 6. The tank mixes were applied at a application rate of 375 l/ha (125 or 250 g of glyphosate free acid/ha and 300 g of adjuvant/ha). The adjuvant Ad1 is an aqeuous solution of 200 g/l Genamin® T150 (a tallow fatty amine ethoxylate with 15 EO). The adjuvant Ad2 is Genamin® T050 (a tallow fatty amine ethoxylate with 5 EO).
Soya (glycine max) Variant Deltapine was genetically engineered to resist glyphosate.

Row | SMILES | Loss of dicamba, Loss (wt %) ([1]; 70° C., 24 h, atmospheric pressure, 500 g/ha dicamba (free acid), deionised water) | pH of tank mix ([1]; deionised water (hardness<1° dH)) | phytotoxity effect on plants of addition of K2CO3 [2]
1 | CN(CCCN)CCCN.COc1c(Cl)ccc(Cl)c1C(=O)O [Dicamba BAPMA, bis(3-aminopropyl)methylamine salt of dicamba] | <1 wt % | 6.3 | 
2 | O=C([O-])[O-].[K+].[K+] [Example K2CO3, K2CO3] |  |  | no phytotoxity effect
